These compounds were tested on Human Monocytic Leukemia MV4-11 (assay: Cell proliferation experiment (Alarm blue, 72 h, EC50)). Conditions: Homo sapiens, MV4-11, MV4;11 cells.
Type: cell-based
Description: (2.1) Cell Proliferation Experiment:
Reagents: RPMI-1640 medium, McCoy's 5A medium, IMDM medium, MEM medium, L-15 medium, fetal bovine serum, Penicillin-Streptomycin double antibody, trypsin, etc., 2-mercaptoethanol, NEAA, pyruvate, etc.
The cells were cultured in conventional ways, and the cells should be passed at least for at least 2 generations before plating. Cells at the logarithmic growth phase are collected, prepared into single cell suspensions and counted. The concentration of cells was adjusted to the desired concentration, and cells were inoculated into a 96-well cell culture plate at 100 μl per well. 100 μL of complete medium of the test compound were added to each well, set up 2 duplicates for each concentration, and diluted with a 5-fold gradient, and continue to culture for 72 h. All cells were subjected to EC50 test for corresponding samples.
The fluorescence intensity of each well was detected using the Alarm blue method, and EC50 was calculated.
EC50 was calculated according to the following formula:
Y=Max+(Min−Max)/[1+(X/EC50)×Slope]
wherein Min, Max and Slope represent the minimum, maximum and slope respectively.

Compound | EC50 [nM]
O=C1CCC(N2Cc3c(NC(=O)COCCNCCN4CCC(NC(=O)[C@]5(Cc6cccc(Nc7nccs7)n6)CC[C@@H](Oc6cccc(Cl)c6F)CC5)CC4)cccc3C2=O)C(=O)N1 (some centres unmarked) [UB-180741] | > 1000
Cc1ncsc1-c1ccc(CNC(=O)[C@@H]2C[C@@H](O)CN2C(=O)[C@@H](NC(=O)CCOCCOCCOCCOCCNC(=O)[C@]2(Cc3cccc(Nc4nccs4)n3)CC[C@@H](Oc3cccc(Cl)c3F)CC2)C(C)(C)C)cc1 [UB-180576] | 100 to 1000
O=C1CCC(N2Cc3c(NC(=O)CCNCCOCCOCCOCCNC(=O)[C@]4(Cc5cccc(Nc6nccs6)n5)CC[C@@H](Oc5cccc(Cl)c5F)CC4)cccc3C2=O)C(=O)N1 (some centres unmarked) [UB-180731] | 100 to 1000
O=C1CCC(N2Cc3c(NC(=O)CCNCCn4cc(CNC(=O)c5ccc(Nc6ncc7c(n6)-c6ccc(Cl)cc6C(c6c(F)cccc6F)=NC7)cc5)nn4)cccc3C2=O)C(=O)N1 (centres unmarked) [UB-180726] | 100 to 1000
O=C1CCC(N2Cc3c(NC(=O)CCNCCOC4CCN(CCOCCNC(=O)c5ccc(Nc6ncc7c(n6)-c6ccc(Cl)cc6C(c6c(F)cccc6F)=NC7)cc5)CC4)cccc3C2=O)C(=O)N1 (centres unmarked) [UB-180821] | > 1000
O=C1CCC(N2Cc3c(NC(=O)COCCNCCOCCOCCOCCNC(=O)[C@]4(Cc5cccc(Nc6nccs6)n5)CC[C@@H](Oc5cccc(Cl)c5F)CC4)cccc3C2=O)C(=O)N1 (some centres unmarked) [UB-180793] | 100 to 1000
CC[C@@H]1c2c(C#N)ncn2-c2cnc(Nc3ccc(C(=O)NCCNc4cccc5c4CN(C4CCC(=O)NC4=O)C5=O)cc3OC)nc2N1C1CCCC1 (some centres unmarked) [UB-180608] | 100 to 1000
O=C1CCC(N2Cc3c(NC(=O)CCNCCn4ncc(CNC(=O)[C@]5(Cc6cccc(Nc7nccs7)n6)CC[C@@H](Oc6cccc(Cl)c6F)CC5)n4)cccc3C2=O)C(=O)N1 (some centres unmarked) [UB-180774] | 100 to 1000
Cc1ncsc1-c1ccc(CNC(=O)[C@@H]2C[C@@H](O)CN2C(=O)[C@@H](NC(=O)COCCCCNC(=O)[C@]2(Cc3cccc(Nc4nccs4)n3)CC[C@@H](Oc3cccc(Cl)c3F)CC2)C(C)(C)C)cc1 [UB-180589] | > 1000
Cc1ncsc1-c1ccc(CNC(=O)[C@@H]2C[C@@H](O)CN2C(=O)[C@@H](NC(=O)COCCNC(=O)c2ccc(Nc3ncc4c(n3)-c3ccc(Cl)cc3C(c3c(F)cccc3F)=NC4)cc2)C(C)(C)C)cc1 [UB-180532] | 100 to 1000
Cc1ncsc1-c1ccc(CNC(=O)[C@@H]2C[C@@H](O)CN2C(=O)[C@H](NC(=O)CCCNCCn2cc(COCCOCCNC(=O)c3ccc(Nc4ncc5c(n4)-c4ccc(Cl)cc4C(c4c(F)cccc4F)=NC5)cc3)nn2)C(C)(C)C)cc1 [UB-180787] | > 1000
O=C1CCC(N2Cc3c(NC(=O)CNCCOCCn4cc(CNC(=O)c5ccc(Nc6ncc7c(n6)-c6ccc(Cl)cc6C(c6c(F)cccc6F)=NC7)cc5)nn4)cccc3C2=O)C(=O)N1 (centres unmarked) [UB-180743] | 100 to 1000
Cc1ncsc1-c1ccc(CNC(=O)[C@@H]2C[C@@H](O)CN2C(=O)[C@@H](NC(=O)CCNCCn2cc(COCCOCCOCCNC(=O)[C@]3(Cc4cccc(Nc5nccs5)n4)CC[C@@H](Oc4cccc(Cl)c4F)CC3)nn2)C(C)(C)C)cc1 [UB-180789] | > 1000
Cc1ncsc1-c1ccc(CNC(=O)[C@@H]2C[C@@H](O)CN2C(=O)[C@@H](NC(=O)CCOCCOCCNC(=O)c2ccc(Nc3ncc4c(n3)-c3ccc(Cl)cc3C(c3c(F)cccc3F)=NC4)cc2)C(C)(C)C)cc1 [UB-180536] | 100 to 1000
O=C1CCC(N2Cc3c(NC(=O)COCCOCCOCCNCCOCCNC(=O)[C@]4(Cc5cccc(Nc6nccs6)n5)CC[C@@H](Oc5cccc(Cl)c5F)CC4)cccc3C2=O)C(=O)N1 (some centres unmarked) [UB-180799] | 100 to 1000
Cc1ncsc1-c1ccc(CNC(=O)[C@@H]2C[C@@H](O)CN2C(=O)[C@@H](NC(=O)COCCOCCOCCOCCNC(=O)[C@]2(Cc3cccc(Nc4nccs4)n3)CC[C@@H](Oc3cccc(Cl)c3F)CC2)C(C)(C)C)cc1 [UB-180580] | 100 to 1000
CC[C@@H]1CN(C)c2cnc(Nc3ccc(C(=O)NCCOCCNCCC(=O)Nc4cccc5c4CN(C4CCC(=O)NC4=O)C5=O)cc3OC)nc2N1C(C)C (some centres unmarked) [UB-180706] | 100 to 1000
CC[C@@H]1c2c(C#N)ncn2-c2cnc(Nc3ccc(C(=O)NCc4cn(CCNCCC(=O)Nc5cccc6c5CN(C5CCC(=O)NC5=O)C6=O)nn4)cc3OC)nc2N1C1CCCC1 (some centres unmarked) [UB-180723] | 100 to 1000
Cc1ncsc1-c1ccc(CNC(=O)[C@@H]2C[C@@H](O)CN2C(=O)[C@@H](NC(=O)CCNCCOCCOCCOCCNC(=O)[C@]2(Cc3cccc(Nc4nccs4)n3)CC[C@@H](Oc3cccc(Cl)c3F)CC2)C(C)(C)C)cc1 [UB-180782] | > 1000
CC[C@@H]1c2c(C#N)ncn2-c2cnc(Nc3ccc(C(=O)NCCOCCOCCOCCNCCC(=O)Nc4cccc5c4CN(C4CCC(=O)NC4=O)C5=O)cc3OC)nc2N1C1CCCC1 (some centres unmarked) [UB-180700] | 100 to 1000
O=C1CCC(N2Cc3c(NC(=O)CCOCCOCCOCCNCCNC(=O)[C@]4(Cc5cccc(Nc6nccs6)n5)CC[C@@H](Oc5cccc(Cl)c5F)CC4)cccc3C2=O)C(=O)N1 (some centres unmarked) [UB-180797] | > 1000
O=C1CCC(N2Cc3c(NC(=O)CCNCCOCCOCCNC(=O)c4ccc(Nc5ncc6c(n5)-c5ccc(Cl)cc5C(c5c(F)cccc5F)=NC6)cc4)cccc3C2=O)C(=O)N1 (centres unmarked) [UB-180777] | 100 to 1000

The remaining lines, values ahead:

EC50 [nM] | Compound
100 to 1000 | O=C1CCC(N2Cc3c(NC(=O)COCCNCCN4CCC(NC(=O)c5ccc(Nc6ncc7c(n6)-c6ccc(Cl)cc6C(c6c(F)cccc6F)=NC7)cc5)CC4)cccc3C2=O)C(=O)N1 (centres unmarked) [UB-180740]
100 to 1000 | O=C1CCC(N2Cc3c(NC(=O)COCCOCCOCCNCCNC(=O)[C@]4(Cc5cccc(Nc6nccs6)n5)CC[C@@H](Oc5cccc(Cl)c5F)CC4)cccc3C2=O)C(=O)N1 (some centres unmarked) [UB-180795]
10 to 100 | CC[C@@H]1C(=O)N(C)c2cnc(Nc3ccc(C(=O)NCCCNCCOCC(=O)Nc4cccc5c4CN(C4CCC(=O)NC4=O)C5=O)cc3OC)nc2N1C1CCCC1 (some centres unmarked) [UB-180698]
100 to 1000 | COc1cc(C(=O)NCCCNCCCCC(=O)Nc2cccc3c2CN(C2CCC(=O)NC2=O)C3=O)ccc1Nc1ncc2c(n1)N(Cc1ccc(Br)cc1)CC(C)(C)C(=O)N2C (centres unmarked) [UB-180670]
100 to 1000 | CC[C@@H]1c2c(C#N)ncn2-c2cnc(Nc3ccc(C(=O)NCCCNc4cccc5c4C(=O)N(C4CCC(=O)NC4=O)C5=O)cc3OC)nc2N1C1CCCC1 (some centres unmarked) [UB-180593]
10 to 100 | CC[C@@H]1c2c(C#N)ncn2-c2cnc(Nc3ccc(C(=O)NCCNc4cccc5c4C(=O)N(C4CCC(=O)NC4=O)C5=O)cc3OC)nc2N1C1CCCC1 (some centres unmarked) [UB-180607]
100 to 1000 | CC[C@@H]1C(=O)N(C)c2cnc(Nc3ccc(C(=O)NC4(C(=O)Nc5cccc6c5CN(C5CCC(=O)NC5=O)C6=O)CC4)cc3OC)nc2N1C1CCCC1 (some centres unmarked) [UB-180571]
10 to 100 | CC[C@@H]1C(=O)N(C)c2cnc(Nc3ccc(C(=O)NCc4cn(CCNCCCC(=O)Nc5cccc6c5CN(C5CCC(=O)NC5=O)C6=O)nn4)cc3OC)nc2N1Cc1ccc(Cl)s1 (some centres unmarked) [UB-180715]
10 to 100 | CC[C@@H]1C(=O)N(C)c2cnc(Nc3ccc(C(=O)NCc4cn(CCNCCOCC(=O)Nc5cccc6c5CN(C5CCC(=O)NC5=O)C6=O)nn4)cc3OC)nc2N1Cc1cc(Cl)cs1 (some centres unmarked) [UB-180763]
10 to 100 | CC[C@@H]1C(=O)N(C)c2cnc(Nc3ccc(C(=O)NC4CCN(CCNCCCCC(=O)Nc5cccc6c5CN(C5CCC(=O)NC5=O)C6=O)C4)cc3OC)nc2N1C1CCCC1 (some centres unmarked) [UB-180693]
10 to 100 | CC[C@@H]1C(=O)N(C)c2cnc(Nc3ccc(C(=O)NCCOCCOCCNCC(=O)Nc4cccc5c4CN(C4CCC(=O)NC4=O)C5=O)cc3OC)nc2N1C1CCCC1 (some centres unmarked) [UB-180814]
10 to 100 | CC[C@@H]1C(=O)N(C)c2cnc(Nc3ccc(C(=O)NCCOCCOCCNc4cccc5c4CN(C4CCC(=O)NC4=O)C5=O)cc3OC)nc2N1Cc1ccc(Br)cc1 (some centres unmarked) [UB-180568]
10 to 100 | CC[C@@H]1C(=O)N(C)c2cnc(Nc3ccc(C(=O)NCCOCCOCCOCCOCCNCCC(=O)Nc4cccc5c4CN(C4CCC(=O)NC4=O)C5=O)cc3OC)nc2N1C1CCCC1 (some centres unmarked) [UB-180813]
10 to 100 | CC[C@@H]1C(=O)N(C)c2cnc(Nc3ccc(C(=O)NCCNCC(=O)Nc4cccc5c4CN(C4CCC(=O)NC4=O)C5=O)cc3OC)nc2N1Cc1ccc(Cl)s1 (some centres unmarked) [UB-180695]
10 to 100 | CC[C@@H]1C(=O)N(C)c2cnc(Nc3ccc(C(=O)NCCOCCOCCOCCNCC(=O)Nc4cccc5c4CN(C4CCC(=O)NC4=O)C5=O)cc3OC)nc2N1Cc1ccc(Br)cc1 (some centres unmarked) [UB-180664]
10 to 100 | CC[C@@H]1C(=O)N(C)c2cnc(Nc3ccc(C(=O)NCCOCCNCCCCC(=O)Nc4cccc5c4CN(C4CCC(=O)NC4=O)C5=O)cc3OC)nc2N1C1CCCC1 (some centres unmarked) [UB-180657]
10 to 100 | CC[C@@H]1C(=O)N(C)c2cnc(Nc3ccc(C(=O)NC4CCN(CCOCCNCC(=O)Nc5cccc6c5CN(C5CCC(=O)NC5=O)C6=O)CC4)cc3OC)nc2N1Cc1ccc(C)s1 (some centres unmarked) [UB-180746]
10 to 100 | CC[C@@H]1C(=O)N(C)c2cnc(Nc3ccc(C(=O)NCCNCCOCCOCCOCC(=O)Nc4cccc5c4CN(C4CCC(=O)NC4=O)C5=O)cc3OC)nc2N1C1CCCC1 (some centres unmarked) [UB-180815]
< 10 | CC[C@@H]1C(=O)N(C)c2cnc(Nc3ccc(C(=O)NCc4cn(CCNCCOCC(=O)Nc5cccc6c5CN(C5CCC(=O)NC5=O)C6=O)nn4)cc3OC)nc2N1Cc1ccc(C)s1 (some centres unmarked) [UB-180764]
10 to 100 | CC[C@@H]1C(=O)N(C)c2cnc(Nc3ccc(C(=O)NC4CCN(CCNCCCCC(=O)Nc5cccc6c5CN(C5CCC(=O)NC5=O)C6=O)CC4)cc3OC)nc2N1Cc1ccc(Br)cc1 (some centres unmarked) [UB-180685]

Same assay, conditions: MV4;11 cells

Compound | EC50 [nM]
O=C1CCC(N2Cc3c(NC(=O)CCNCCOCCn4cc(CNC(=O)[C@]5(Cc6cccc(Nc7nccs7)n6)CC[C@@H](Oc6cccc(Cl)c6F)CC5)nn4)cccc3C2=O)C(=O)N1 (some centres unmarked) [UB-180739] | > 1000
O=C1CCC(N2Cc3c(NC(=O)CNCCOCCN4CCN(CCNC(=O)[C@]5(Cc6cccc(Nc7nccs7)n6)CC[C@@H](Oc6cccc(Cl)c6F)CC5)CC4)cccc3C2=O)C(=O)N1 (some centres unmarked) [UB-180812] | 100 to 1000

— patent publication US20210369853A1, “TARGETED PROTEASE DEGRADATION PLATFORM” (EUBULUS BIOTHERAPEUTICS INC., priority 2018, published 2021)
